According to patent US10246456B2, “IRAK4 inhibiting agents” (BIOGEN MA INC., priority 2014, dated 2019):

Legend:
IL-6 in A549 cells = assay: Cell-based IL-6 ELISA assay in IL-1beta stimulated A549 cells; conditions: 2 ng/ml human IL-1beta overnight
Summary of the method: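 A549 cells (2.5×10^4/well, DMEM/10% FBS) pretreated 30 min at 37 C with compound, 10-point serial dilution from 10 uM, then stimulated overnight with 2 ng/ml human IL-1beta. Secreted IL-6 in supernatant quantified by human IL-6 ELISA.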

IRAK4 = IRAK4 (Homo sapiens (Human), UniProt Q9NWZ3); assay: IRAK-4 AlphaScreen biochemical kinase assay; conditions: 1 nM IRAK4, 1 mM ATP, 3.5 h at RT
IRAK4, sequence (Q9NWZ3 whole entry, species assumed): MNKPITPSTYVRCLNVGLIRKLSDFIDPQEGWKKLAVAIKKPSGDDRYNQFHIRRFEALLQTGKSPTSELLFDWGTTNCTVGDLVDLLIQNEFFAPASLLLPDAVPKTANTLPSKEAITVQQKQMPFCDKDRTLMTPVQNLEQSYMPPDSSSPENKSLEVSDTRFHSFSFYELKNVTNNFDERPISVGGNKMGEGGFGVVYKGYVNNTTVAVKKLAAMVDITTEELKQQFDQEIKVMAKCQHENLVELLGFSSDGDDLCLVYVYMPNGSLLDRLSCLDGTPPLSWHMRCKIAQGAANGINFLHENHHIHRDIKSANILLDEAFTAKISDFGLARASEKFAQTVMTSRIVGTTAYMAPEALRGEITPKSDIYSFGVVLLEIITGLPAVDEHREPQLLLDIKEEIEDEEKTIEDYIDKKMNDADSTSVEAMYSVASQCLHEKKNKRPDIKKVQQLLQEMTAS
Summary of the method: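 AlphaScreen read-out: streptavidin beads bind the biotinylated peptide and protein A beads bind the anti-phosphothreonine antibody, so energy transfer reports phosphorylation of the peptide. The kinase is human IRAK-4.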

| SMILES | EC50 (IL-6 in A549 cells) | IC50 (IRAK4) |
| --- | --- | --- |
| C[C@H](N)c1cccc(-c2cc(-c3cnn(C(F)(F)F)c3)c3cnn(-c4cccc(CO)n4)c3c2)n1 [Example 376, (S)-(6-(6-(6-(1-aminoethyl)pyridin-2-yl)-4-(1-(trifluoromethyl)-1H-pyrazol-4-yl)-1H-indazol-1-yl)pyridin-2-yl)methanol] | ≤ 1 µM | < 0.1 µM |
| CCC[C@H](N)c1cccc(-c2cc(C3CCOCC3)c3cnn(-c4cccc(CO)n4)c3c2)n1 [Example 425, (S)-(6-(6-(6-(1-aminobutyl)pyridin-2-yl)-4-(tetrahydro-2H-pyran-4-yl)-1H-indazol-1-yl)pyridin-2-yl)methanol] | ≤ 1 µM | < 0.1 µM |
| CCC[C@@H](N)c1ccnc(-c2ccc3cnn(-c4cccc(CO)n4)c3c2)n1 [Example 414, (R)-(6-(6-(4-(1-aminobutyl)pyrimidin-2-yl)-1H-indazol-1-yl)pyridin-2-yl)methanol] | ≤ 1 µM | < 0.1 µM |
| C[C@H](N)c1cccc(-c2cc(-c3ncc(C(F)(F)F)s3)c3cnn(-c4cccc(CO)n4)c3c2)n1 [Example 380, (S)-(6-(6-(6-(1-aminoethyl)pyridin-2-yl)-4-(5-(trifluoromethyl)thiazol-2-yl)-1H-indazol-1-yl)pyridin-2-yl)methanol] | 1 to 10 µM | < 0.1 µM |
| Cc1nnc(-c2cc(-c3cccc([C@H](C)N)n3)cc3c2cnn3-c2cccc(CO)n2)s1 [Example 362, (S)-(6-(6-(6-(1-aminoethyl)pyridin-2-yl)-4-(5-methyl-1,3,4-thiadiazol-2-yl)-1H-indazol-1-yl)pyridin-2-yl)methanol] | ≤ 1 µM | < 0.1 µM |
| Cc1cc(-c2cc(-c3cccc([C@H](C)N)n3)cc3c2cnn3-c2cccc(CO)n2)nn1C [Example 365, (S)-(6-(6-(6-(1-aminoethyl)pyridin-2-yl)-4-(1,5-dimethyl-1H-pyrazol-3-yl)-1H-indazol-1-yl)pyridin-2-yl)methanol] | ≤ 1 µM | < 0.1 µM |
| CCC[C@H](N)c1ccnc(-c2ccc3cnn(-c4cccc(CO)n4)c3c2)n1 [Example 413, (S)-(6-(6-(4-(1-aminobutyl)pyrimidin-2-yl)-1H-indazol-1-yl)pyridin-2-yl)methanol] | ≤ 1 µM | < 0.1 µM |
| CCC[C@H](N)c1cccc(-c2ccc3cnn(-c4cncc(CO)n4)c3c2)n1 [Example 399, (S)-(6-(6-(6-(1-aminobutyl)pyridin-2-yl)-1H-indazol-1-yl)pyrazin-2-yl)methanol] | ≤ 1 µM | < 0.1 µM |
| CCC[C@H](N)c1cccc(-c2cc(N3CCCC(O)C3)c3cnn(-c4cccc(CO)n4)c3c2)n1 (stereo partly drawn) [Example 330, 1-(6-(6-((S)-1-aminobutyl)pyridin-2-yl)-1-(6-(hydroxymethyl)pyridin-2-yl)-1H-indazol-4-yl)piperidin-3-ol] | ≤ 1 µM | < 0.1 µM |
| Cc1cc(-c2cc(-c3cccc([C@H](C)N)n3)cc3c2cnn3-c2cccc(CO)n2)n[nH]1 [Example 366, (S)-(6-(6-(6-(1-aminoethyl)pyridin-2-yl)-4-(5-methyl-1H-pyrazol-3-yl)-1H-indazol-1-yl)pyridin-2-yl)methanol] | ≤ 1 µM | < 0.1 µM |
| CC(F)(F)C[C@H](N)c1cccc(-c2ccc3cnn(-c4cccc(CO)n4)c3c2)n1 [Example 437, (S)-(6-(6-(6-(1-amino-3,3-difluorobutyl)pyridin-2-yl)-1H-indazol-1-yl)pyridin-2-yl)methanol] | ≤ 1 µM | < 0.1 µM |
| CCOc1cc(-c2cccc(C(N)C3COC3)n2)cc2c1cnn2-c1cccc(CO)n1 (stereo not shown) [Example 447, (6-(6-(6-(amino(oxetan-3-yl)methyl)pyridin-2-yl)-4-ethoxy-1H-indazol-1-yl)pyridin-2-yl)methanol] | ≤ 1 µM | < 0.1 µM |
| CCC[C@H](N)c1cccc(-c2cc(-c3ccn(C)n3)c3cnn(-c4cccc(CO)n4)c3c2)n1 [Example 361] | ≤ 1 µM | < 0.1 µM |
| CCOc1cc(-c2cccc([C@@H](N)[C@@H](F)CC)n2)cc2c1cnn2-c1cccc(CO)n1 [Example 442, (6-(6-(6-((1R,2S)-1-amino-2-fluorobutyl)pyridin-2-yl)-4-ethoxy-1H-indazol-1-yl)pyridin-2-yl)methanol] | ≤ 1 µM | < 0.1 µM |
| C[C@H](N)c1cccc(-c2cc(-c3nc(C#N)cs3)c3cnn(-c4cccc(CO)n4)c3c2)n1 [Example 369, (S)-2-(6-(6-(1-aminoethyl)pyridin-2-yl)-1-(6-(hydroxymethyl)pyridin-2-yl)-1H-indazol-4-yl)thiazol-4-carbonitrile] | ≤ 1 µM | < 0.1 µM |
| C[C@H](N)c1cccc(-c2cc(-c3cc[nH]n3)c3cnn(-c4cccc(CO)n4)c3c2)n1 [Example 381, (S)-(6-(6-(6-(1-aminoethyl)pyridin-2-yl)-4-(1H-pyrazol-3-yl)-1H-indazol-1-yl)pyridin-2-yl)methanol] | 1 to 10 µM | < 0.1 µM |

The next lines start with the values.

| EC50 (IL-6 in A549 cells) | IC50 (IRAK4) | SMILES |
| --- | --- | --- |
| 1 to 10 µM | < 0.1 µM | CC1(CC(N)c2cccc(-c3ccc4cnn(-c5cccc(CO)n5)c4c3)n2)COC1 (stereo not shown) [Example 448, (6-(6-(6-(1-amino-2-(3-methyloxetan-3-yl)ethyl)pyridin-2-yl)-1H-indazol-1-yl)pyridin-2-yl)methanol] |
| ≤ 1 µM | < 0.1 µM | CCC[C@H](N)c1cccc(-c2cc(CO)c3cnn(-c4cccc(CO)n4)c3c2)n1 [Example 492, (S)-(6-(6-(1-aminobutyl)pyridin-2-yl)-1-(6-(hydroxymethyl)pyridin-2-yl)-1H-indazol-4-yl)methanol] |
| 1 to 10 µM | < 0.1 µM | CCC[C@H](N)c1cccc(-c2ccc3cnn(-c4cccc(C=O)n4)c3c2)n1 [Example 450, (S)-6-(6-(6-(1-aminobutyl)pyridin-2-yl)-1H-indazol-1-yl)picolinaldehyde] |
| ≤ 1 µM | < 0.1 µM | CCC[C@H](N)c1cccc(-c2cc(C3CCN(C(C)=O)CC3)c3cnn(-c4cccc(CO)n4)c3c2)n1 [Example 515, (S)-1-(4-(6-(6-(1-aminobutyl)pyridin-2-yl)-1-(6-(hydroxymethyl)pyridin-2-yl)-1H-indazol-4-yl)piperidin-1-yl)ethanone] |
| ≤ 1 µM | < 0.1 µM | CCC[C@H](N)c1cccc(-c2ccc3cnn(-c4nccc(C(F)F)n4)c3c2)n1 [Example 486, (S)-1-(6-(1-(4-(difluoromethyl)pyrimidin-2-yl)-1H-indazol-6-yl)pyridin-2-yl)butan-1-amine] |
| ≤ 1 µM | < 0.1 µM | CCC[C@H](NC)c1cccc(-c2ccc3cnn(-c4cccc(CO)n4)c3c2)n1 [Example 527, (S)-(6-(6-(6-(1-(methylamino)butyl)pyridin-2-yl)-1H-indazol-1-yl)pyridin-2-yl)methanol] |
| 1 to 10 µM | < 0.1 µM | CCC[C@H](N)c1cccc(-c2ccc3cnn(-c4cccc([C@H](O)C(F)(F)F)n4)c3c2)n1 [Example 452, (S)-1-(6-(6-(6-((S)-1-aminobutyl)pyridin-2-yl)-1H-indazol-1-yl)pyridin-2-yl)-2,2,2-trifluoroethanol] |
| 1 to 10 µM | < 0.1 µM | Cc1cccc(-n2ncc3c(-c4ncco4)cc(-c4cccc(C(C)N)n4)cc32)n1 (stereo not shown) [Example 542, 1-(6-(1-(6-methylpyridin-2-yl)-4-(oxazol-2-yl)-1H-indazol-6-yl)pyridin-2-yl)ethanamine] |
| 1 to 10 µM | < 0.1 µM | CCC[C@H](N)c1cccc(-c2ccc3cnn(-c4cncc(C(F)(F)F)n4)c3c2)n1 [Example 546, (S)-1-(6-(1-(6-(trifluoromethyl)pyrazin-2-yl)-1H-indazol-6-yl)pyridin-2-yl)butan-1-amine] |
| ≤ 1 µM | < 0.1 µM | CCC[C@H](N)c1cccc(-c2cc(CN(C)C)c3cnn(-c4cccc(CO)n4)c3c2)n1 [Example 517, (S)-(6-(6-(6-(1-aminobutyl)pyridin-2-yl)-4-((dimethylamino)methyl)-1H-indazol-1-yl)pyridin-2-yl)methanol] |
| ≤ 1 µM | < 0.1 µM | CC[C@H](N)c1cccc(-c2cc(NC)c3cnn(-c4cccc(CO)n4)c3c2)n1 [Example 485, (S)-(6-(6-(6-(1-aminopropyl)pyridin-2-yl)-4-(methylamino)-1H-indazol-1-yl)pyridin-2-yl)methanol] |
| ≤ 1 µM | < 0.1 µM | CCC[C@H](N)c1cccc(-c2cc(C3=CCOCC3)c3cnn(-c4cccc(CO)n4)c3c2)n1 [Example 494, (S)-(6-(6-(6-(1-aminobutyl)pyridin-2-yl)-4-(3,6-dihydro-2H-pyran-4-yl)-1H-indazol-1-yl)pyridin-2-yl)methanol] |
| ≤ 1 µM | < 0.1 µM | CCC[C@H](N)c1cccc(-c2cc(OCCC3CC3)c3cnn(-c4cccc(CO)n4)c3c2)n1 [Example 522, (S)-(6-(6-(6-(1-aminobutyl)pyridin-2-yl)-4-(2-cyclopropylethoxy)-1H-indazol-1-yl)pyridin-2-yl)methanol] |
| ≤ 1 µM | < 0.1 µM | CCC[C@H](N)c1cccc(-c2cc(OCC)c3cnn(-c4cncc(CO)n4)c3c2)n1 [Example 499, (S)-(6-(6-(6-(1-aminobutyl)pyridin-2-yl)-4-ethoxy-1H-indazol-1-yl)pyrazin-2-yl)methanol] |
| 1 to 10 µM | 0.1 to 1 µM | C[C@H](N)c1cccc(-c2ccc3cnn(-c4nccc(C(F)F)n4)c3c2)n1 [Example 541, (S)-1-(6-(1-(4-(difluoromethyl)pyrimidin-2-yl)-1H-indazol-6-yl)pyridin-2-yl)ethanamine] |
| ≤ 1 µM | < 0.1 µM | CCC[C@H](N)c1cccc(-c2cc(OCCOC)c3cnn(-c4cccc(CO)n4)c3c2)n1 [Example 476, (S)-(6-(6-(6-(1-aminobutyl)pyridin-2-yl)-4-(2-methoxyethoxy)-1H-indazol-1-yl)pyridin-2-yl)methanol] |
